Laboratory results as given in paper PMC8185074, “Anchor extension: a structure-guided approach to design cyclic peptides targeting enzyme active sites” (Nature Communications, 2021).
pIC50: −log10 of the molar value. Peptide text beside a SMILES is read from it.

What was measured:
Type in all cases: biochemical
[1] = molecular target: T1, HDAC3 (Homo sapiens, UniProt O15379); assay: HDAC3 inhibition, full IC50 measurement (Reaction Biology; fluorogenic p53 peptide RHKK(Ac)AMC)
T1 construct: purchased Reaction Biology Corporation (assay run by the CRO)
T1 sequence (O15379 whole entry): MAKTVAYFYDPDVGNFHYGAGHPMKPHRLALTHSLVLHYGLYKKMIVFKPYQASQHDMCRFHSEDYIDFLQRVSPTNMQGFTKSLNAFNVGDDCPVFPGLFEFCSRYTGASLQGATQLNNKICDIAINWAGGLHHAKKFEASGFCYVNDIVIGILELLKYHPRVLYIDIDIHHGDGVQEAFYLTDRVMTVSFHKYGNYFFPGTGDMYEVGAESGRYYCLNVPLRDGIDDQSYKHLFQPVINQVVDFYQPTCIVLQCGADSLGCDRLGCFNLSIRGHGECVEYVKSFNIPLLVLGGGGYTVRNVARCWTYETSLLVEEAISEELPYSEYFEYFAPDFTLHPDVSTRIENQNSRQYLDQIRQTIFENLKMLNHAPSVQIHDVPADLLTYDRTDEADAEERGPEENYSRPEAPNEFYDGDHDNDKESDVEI
T1 sequence (Q9Y618 395-489 partner limits assumed): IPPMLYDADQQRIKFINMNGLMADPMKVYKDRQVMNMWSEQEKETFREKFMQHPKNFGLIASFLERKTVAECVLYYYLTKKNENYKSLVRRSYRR
In short: (§1)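 Test peptides were dispensed acoustically with enzyme in 50 mM Tris-HCl pH 8.0, 137 mM NaCl, 2.7 mM KCl, 1 mM MgCl2, 1 mg/ml BSA and 1% DMSO. After adding 50 μM RHKK(Ac)AMC, reactions ran 1 h at 30 °C, then developer was added.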

[2] = molecular target: T2, HDAC2 (Homo sapiens, UniProt Q92769); assay: HDAC2 inhibition, full IC50 measurement (Reaction Biology; fluorogenic p53 peptide RHKK(Ac)AMC)
T2 construct: purchased Reaction Biology Corporation (assay run by the CRO)
T2 sequence (Q92769 whole entry): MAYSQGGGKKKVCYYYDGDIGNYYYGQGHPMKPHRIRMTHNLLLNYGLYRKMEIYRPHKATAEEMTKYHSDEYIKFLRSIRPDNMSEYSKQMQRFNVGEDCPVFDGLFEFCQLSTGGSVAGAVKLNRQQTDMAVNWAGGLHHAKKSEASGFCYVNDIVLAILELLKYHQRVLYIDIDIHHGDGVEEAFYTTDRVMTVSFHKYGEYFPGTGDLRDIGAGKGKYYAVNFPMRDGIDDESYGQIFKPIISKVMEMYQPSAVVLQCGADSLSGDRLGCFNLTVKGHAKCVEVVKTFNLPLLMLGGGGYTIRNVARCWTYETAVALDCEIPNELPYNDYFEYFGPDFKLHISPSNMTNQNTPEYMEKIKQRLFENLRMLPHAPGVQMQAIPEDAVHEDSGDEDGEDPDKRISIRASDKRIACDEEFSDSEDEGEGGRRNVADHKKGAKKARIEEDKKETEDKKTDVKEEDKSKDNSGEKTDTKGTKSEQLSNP
In short: as §1

[3] = molecular target: T2, HDAC2; assay: Initial HDAC2 IC50 estimate (BPS Biosciences HDAC fluorogenic assay kit)
In short: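 Inhibition measured by kit-based fluorogenic HDAC activity assays, with each point in duplicate or triplicate. Values come from a full 1 µM–100 pM series (1:10 steps) or are range estimates from just 20 nM and 200 nM.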

C[C@H](O)[C@H]1NC(=O)[C@H](Cc2c[nH]c3ccccc23)NC(=O)[C@H](CCCCCS)NC(=O)[C@H](CCCCN)NC(=O)[C@@H](CC(=O)O)NC(=O)[C@@H](CCCCN)NC(=O)[C@@H](CO)NC(=O)[C@H](CC(N)=O)NC(=O)[C@H](CC(=O)O)NC1=O [des2.1.0, SHA-Trp-dThr-Asp-Asn-dSer-dLys-dAsp-Lys] (HELM PEPTIDE1{D.N.[dS].[dK].[dD].K.[O=C([C@H](CCCCCS)N[*:1])[*:2]].W.[dT]}$PEPTIDE1,PEPTIDE1,1:R1-9:R2$$$V2.0)
HDAC3 activity raw data (signal) ([1]; Conc. 1.00E-05 M, t1): 14719
HDAC3 activity raw data (signal) ([1]; Conc. 1.00E-05 M, t2): 13801
HDAC3 activity raw data (signal) ([1]; Conc. 1.11E-06 M, t1): 92063
HDAC3 activity raw data (signal) ([1]; Conc. 1.11E-06 M, t2): 96957
HDAC3 activity raw data (signal) ([1]; Conc. 1.23E-07 M, t1): 462933
HDAC3 activity raw data (signal) ([1]; Conc. 1.23E-07 M, t2): 478168
HDAC3 activity raw data (signal) ([1]; Conc. 1.37E-08 M, t1): 1054714
HDAC3 activity raw data (signal) ([1]; Conc. 1.37E-08 M, t2): 1114131
HDAC3 activity raw data (signal) ([1]; Conc. 1.52E-09 M, t1): 1368847
HDAC3 activity raw data (signal) ([1]; Conc. 1.52E-09 M, t2): 1246343
HDAC3 activity raw data (signal) ([1]; Conc. 3.33E-06 M, t1): 35860
HDAC3 activity raw data (signal) ([1]; Conc. 3.33E-06 M, t2): 35981
HDAC3 activity raw data (signal) ([1]; Conc. 3.70E-07 M, t1): 254333
HDAC3 activity raw data (signal) ([1]; Conc. 3.70E-07 M, t2): 260454
HDAC3 activity raw data (signal) ([1]; Conc. 4.12E-08 M, t1): 754531
HDAC3 activity raw data (signal) ([1]; Conc. 4.12E-08 M, t2): 801621
HDAC3 activity raw data (signal) ([1]; Conc. 4.57E-09 M, t1): 1235523
HDAC3 activity raw data (signal) ([1]; Conc. 4.57E-09 M, t2): 1319114
HDAC3 activity raw data (signal) ([1]; Conc. 5.08E-10 M, t1): 1390666
HDAC3 activity raw data (signal) ([1]; Conc. 5.08E-10 M, t2): 1409656
HDAC2 activity raw data (signal) ([2]; Conc. 1.00E-05 M, t1): 8775
HDAC2 activity raw data (signal) ([2]; Conc. 1.00E-05 M, t2): 5752
HDAC2 activity raw data (signal) ([2]; Conc. 1.11E-06 M, t1): 59204
HDAC2 activity raw data (signal) ([2]; Conc. 1.11E-06 M, t2): 55653
HDAC2 activity raw data (signal) ([2]; Conc. 1.23E-07 M, t1): 287500
HDAC2 activity raw data (signal) ([2]; Conc. 1.23E-07 M, t2): 296559
HDAC2 activity raw data (signal) ([2]; Conc. 1.37E-08 M, t1): 771007
HDAC2 activity raw data (signal) ([2]; Conc. 1.37E-08 M, t2): 731853
HDAC2 activity raw data (signal) ([2]; Conc. 1.52E-09 M, t1): 900838
HDAC2 activity raw data (signal) ([2]; Conc. 1.52E-09 M, t2): 951179
HDAC2 activity raw data (signal) ([2]; Conc. 3.33E-06 M, t1): 26370
HDAC2 activity raw data (signal) ([2]; Conc. 3.33E-06 M, t2): 19470
HDAC2 activity raw data (signal) ([2]; Conc. 3.70E-07 M, t1): 153888
HDAC2 activity raw data (signal) ([2]; Conc. 3.70E-07 M, t2): 158440
HDAC2 activity raw data (signal) ([2]; Conc. 4.12E-08 M, t1): 557731
HDAC2 activity raw data (signal) ([2]; Conc. 4.12E-08 M, t2): 531503
HDAC2 activity raw data (signal) ([2]; Conc. 4.57E-09 M, t1): 870100
HDAC2 activity raw data (signal) ([2]; Conc. 4.57E-09 M, t2): 861014
HDAC2 activity raw data (signal) ([2]; Conc. 5.08E-10 M, t1): 1022928
HDAC2 activity raw data (signal) ([2]; Conc. 5.08E-10 M, t2): 990162
pIC50 ([2]; figure legends, Supp. Table 1, read-out: HDAC2 IC50): 7.31

NCCCC[C@H]1NC(=O)[C@H](CCC(N)=O)NC(=O)[C@H](CCC(=O)O)NC(=O)[C@@H]2CCCN2C(=O)[C@H](CC(N)=O)NC(=O)[C@H](CCCCCS)NC(=O)CNC(=O)[C@H](Cc2c[nH]c3ccccc23)NC1=O [des1.1.1, SHA-Asn-Pro-Glu-Gln-dLys-Trp-Gly] (HELM PEPTIDE1{E.Q.[dK].W.G.[O=C([C@H](CCCCCS)N[*:1])[*:2]].N.P}$PEPTIDE1,PEPTIDE1,1:R1-8:R2$$$V2.0)
HDAC3 activity raw data (signal) ([1]; Conc. 1.00E-05 M, t1): 45806
HDAC3 activity raw data (signal) ([1]; Conc. 1.00E-05 M, t2): 14609
HDAC3 activity raw data (signal) ([1]; Conc. 1.11E-06 M, t1): 200334
HDAC3 activity raw data (signal) ([1]; Conc. 1.11E-06 M, t2): 152988
HDAC3 activity raw data (signal) ([1]; Conc. 1.23E-07 M, t1): 623414
HDAC3 activity raw data (signal) ([1]; Conc. 1.23E-07 M, t2): 515219
HDAC3 activity raw data (signal) ([1]; Conc. 1.37E-08 M, t1): 834270
HDAC3 activity raw data (signal) ([1]; Conc. 1.37E-08 M, t2): 1063632
HDAC3 activity raw data (signal) ([1]; Conc. 1.52E-09 M, t1): 943875
HDAC3 activity raw data (signal) ([1]; Conc. 1.52E-09 M, t2): 1416606
HDAC3 activity raw data (signal) ([1]; Conc. 3.33E-06 M, t1): 128090
HDAC3 activity raw data (signal) ([1]; Conc. 3.33E-06 M, t2): 52786
HDAC3 activity raw data (signal) ([1]; Conc. 3.70E-07 M, t1): 393148
HDAC3 activity raw data (signal) ([1]; Conc. 3.70E-07 M, t2): 276336
HDAC3 activity raw data (signal) ([1]; Conc. 4.12E-08 M, t1): 758574
HDAC3 activity raw data (signal) ([1]; Conc. 4.12E-08 M, t2): 884895
HDAC3 activity raw data (signal) ([1]; Conc. 4.57E-09 M, t1): 936051
HDAC3 activity raw data (signal) ([1]; Conc. 4.57E-09 M, t2): 1217433
HDAC3 activity raw data (signal) ([1]; Conc. 5.08E-10 M, t1): 935427
HDAC3 activity raw data (signal) ([1]; Conc. 5.08E-10 M, t2): 1315263
2-Selectivity: fold potency for HDAC2 over HDAC6 [2]: 0.17 fold
HDAC2 activity raw data (signal) ([2]; Conc. 1.00E-05 M, t1): 51389
HDAC2 activity raw data (signal) ([2]; Conc. 1.11E-06 M, t1): 176321
HDAC2 activity raw data (signal) ([2]; Conc. 1.23E-07 M, t1): 517115
HDAC2 activity raw data (signal) ([2]; Conc. 1.23E-07 M, t2): 516299
HDAC2 activity raw data (signal) ([2]; Conc. 1.37E-08 M, t1): 670648
HDAC2 activity raw data (signal) ([2]; Conc. 1.37E-08 M, t2): 890041
HDAC2 activity raw data (signal) ([2]; Conc. 1.52E-09 M, t1): 768698
HDAC2 activity raw data (signal) ([2]; Conc. 1.52E-09 M, t2): 986775
HDAC2 activity raw data (signal) ([2]; Conc. 3.33E-06 M, t1): 91275
HDAC2 activity raw data (signal) ([2]; Conc. 3.70E-07 M, t1): 346891
HDAC2 activity raw data (signal) ([2]; Conc. 4.12E-08 M, t1): 680634
HDAC2 activity raw data (signal) ([2]; Conc. 4.12E-08 M, t2): 655155
HDAC2 activity raw data (signal) ([2]; Conc. 4.57E-09 M, t1): 833526
HDAC2 activity raw data (signal) ([2]; Conc. 4.57E-09 M, t2): 959526
HDAC2 activity raw data (signal) ([2]; Conc. 5.08E-10 M, t1): 761364
HDAC2 activity raw data (signal) ([2]; Conc. 5.08E-10 M, t2): 1054303
pIC50 ([3]; Supp. Table 4, rough estimates, for promising hits full measurements, read-out: HDAC2 activity (initial values for HDAC2 IC50)): 6.72
pIC50 ([3]; Supplementary Dataset 2, read-out: HDAC2 activity (initial activity)): 6.57
